# According to US10721934B2, “Enhanced preservative” (Arch Chemicals, Inc., priority 2013, dated 2020):
# Legend:
# Format in all cases: cell-based
# Aureobasidium pullulans = assay: MIC test, 96 well microtiter plate; details: single chemical
# Procedure: (§1) MIC set up: A 96 well microtiter plate Minimum Inhibitory Concentration (MIC) test was run in broth suitable for the test organism. Serially diluted actives were prepared in sterilized water, and the start-up concentration varied depending on the efficacy range. Inocula prepared in 2× suitable broth was added into each well, and the final concentrations of bacteria were adjusted to approximately 5×10^5.
# (§2) Further MIC tests were conducted using different amine compounds in combination with a pyrithione and two different isothiazolinones. The procedures described in Example No. 1 were used.
# Staphylococcus aureus = assay: MIC test, 96 well microtiter plate; details: single chemical
# Procedure: as §1, §2
# Candida albicans = assay: MIC test, 96 well microtiter plate; details: single chemical
# Procedure: as §1, §2
# Escherichia coli = assay: MIC test, 96 well microtiter plate; details: single chemical
# Procedure: as §1, §2
# Aspergillus brasiliensis = assay: MIC test, 96 well microtiter plate; details: single chemical
# Procedure: as §1, §2
# [1] = tested on: Pseudomonas aeruginosa ATCC 15442; assay: Minimum Inhibitory Concentration (MIC) test, 96 well microtiter plate; details: for biocide enhancing effect on zinc pyrithione: MIC of blends with ZnPT, Table 1; for MIC: Pseudomonas aeruginosa, ATCC15442, single chemical
# Procedure: Microorganisms: Pseudomonas aeruginosa ATCC 15442
# as §1
# [2] = tested on: mixed bacterial inoculum (Pseudomonas aeruginosa, Enterobacter cloacae, Escherichia coli, Acinetobacter calcoaceticus); assay: Repeated inoculation of standard acrylic paint, streak plate rating
# Procedure: In the following experiments, a pyrithione, an isothiazolinone, and a biocide enhancing agent in accordance with the present disclosure were combined with a standard acrylic paint. The concentrations of the pyrithione, the isothiazolinone and the biocide enhancing agent were varied. The pyrithione, the isothiazolinone and the biocide enhancing agent were added alone and in various mixtures to the standard acrylic paint.
# The acrylic paint was then inoculated three times using a mixed bacterial inoculum. The bacterial inoculum, which comprised a bacterial suspension in water, contained the following four bacteria in equal proportions.
# The samples were streak plated at 24, 48, and 72 hours after inoculation. The streak plates were rated as follows;
smiles,measurement,setting,value
CCCCn1sc2ccccc2c1=O [BBIT],Minimum Inhibitory Concentration,Aureobasidium pullulans,2.5 ppm
same,Minimum Inhibitory Concentration,Staphylococcus aureus,5.0 ppm
same,Minimum Inhibitory Concentration,Candida albicans,3.75 ppm
same,Minimum Inhibitory Concentration,Escherichia coli,80.0 ppm
same,Minimum Inhibitory Concentration,Aspergillus brasiliensis,1.9 ppm
"CCCCCCCCCCCCN [DDA, 1-dodecylamine]",biocide enhancing effect on the isothiazolin,"[1]; MIC of blends with BIT, Table 2",had an enhancing effect on the isothiazolin
same,biocide enhancing effect on zinc pyrithione,[1],enhance the effectiveness of the zinc pyrithione
same,MIC,[1],200 µg/mL
same,streak plate rating,"[2]; Set Four, DDA 600 ppm, 1st inoculation 24 h",5 (>45 viable microorganisms Severely contaminated)
same,streak plate rating,"[2]; Set Four, DDA 600 ppm, 1st inoculation 48 h",2 (6-15 viable microorganisms Lightly contaminated)
same,streak plate rating,"[2]; Set Four, DDA 600 ppm, 1st inoculation 72 h",0
same,streak plate rating,"[2]; Set Four, DDA 600 ppm, 2nd inoculation 24 h",5 (>45 viable microorganisms Severely contaminated)
same,streak plate rating,"[2]; Set Four, DDA 600 ppm, 2nd inoculation 48 h",5 (>45 viable microorganisms Severely contaminated)
same,streak plate rating,"[2]; Set Four, DDA 600 ppm, 2nd inoculation 72 h",5 (>45 viable microorganisms Severely contaminated)
same,streak plate rating,"[2]; Set Four, DDA 600 ppm, 3rd inoculation 24 h",5 (>45 viable microorganisms Severely contaminated)
same,streak plate rating,"[2]; Set Four, DDA 600 ppm, 3rd inoculation 48 h",5 (>45 viable microorganisms Severely contaminated)
same,streak plate rating,"[2]; Set Four, DDA 600 ppm, 3rd inoculation 72 h",5 (>45 viable microorganisms Severely contaminated)
same,streak plate rating,"[2]; Set One, DDA 600 ppm, 1st inoculation 24 h",5 (>45 viable microorganisms Severely contaminated)
same,streak plate rating,"[2]; Set One, DDA 600 ppm, 1st inoculation 48 h",5 (>45 viable microorganisms Severely contaminated)
same,streak plate rating,"[2]; Set One, DDA 600 ppm, 1st inoculation 72 h",5 (>45 viable microorganisms Severely contaminated)
same,streak plate rating,"[2]; Set One, DDA 600 ppm, 2nd inoculation 24 h",5 (>45 viable microorganisms Severely contaminated)
same,streak plate rating,"[2]; Set One, DDA 600 ppm, 2nd inoculation 48 h",5 (>45 viable microorganisms Severely contaminated)
same,streak plate rating,"[2]; Set One, DDA 600 ppm, 3rd inoculation 24 h",5 (>45 viable microorganisms Severely contaminated)
same,streak plate rating,"[2]; Set One, DDA 600 ppm, 3rd inoculation 48 h",5 (>45 viable microorganisms Severely contaminated)
same,streak plate rating,"[2]; Set One, DDA 600 ppm, 3rd inoculation 72 h",5 (>45 viable microorganisms Severely contaminated)
same,streak plate rating,"[2]; Set One, DDA 900 ppm, 1st inoculation 24 h",5 (>45 viable microorganisms Severely contaminated)
same,streak plate rating,"[2]; Set One, DDA 900 ppm, 1st inoculation 48 h",5 (>45 viable microorganisms Severely contaminated)
same,streak plate rating,"[2]; Set One, DDA 900 ppm, 1st inoculation 72 h",5 (>45 viable microorganisms Severely contaminated)
same,streak plate rating,"[2]; Set One, DDA 900 ppm, 2nd inoculation 24 h",5 (>45 viable microorganisms Severely contaminated)
same,streak plate rating,"[2]; Set One, DDA 900 ppm, 2nd inoculation 48 h",5 (>45 viable microorganisms Severely contaminated)
same,streak plate rating,"[2]; Set One, DDA 900 ppm, 3rd inoculation 24 h",5 (>45 viable microorganisms Severely contaminated)
same,streak plate rating,"[2]; Set One, DDA 900 ppm, 3rd inoculation 48 h",5 (>45 viable microorganisms Severely contaminated)
same,streak plate rating,"[2]; Set One, DDA 900 ppm, 3rd inoculation 72 h",5 (>45 viable microorganisms Severely contaminated)
same,streak plate rating,"[2]; Set One, DDA 1200 ppm, 1st inoculation 24 h",5 (>45 viable microorganisms Severely contaminated)
same,streak plate rating,"[2]; Set One, DDA 1200 ppm, 1st inoculation 48 h",5 (>45 viable microorganisms Severely contaminated)
same,streak plate rating,"[2]; Set One, DDA 1200 ppm, 1st inoculation 72 h",5 (>45 viable microorganisms Severely contaminated)
same,streak plate rating,"[2]; Set One, DDA 1200 ppm, 2nd inoculation 24 h",5 (>45 viable microorganisms Severely contaminated)
same,streak plate rating,"[2]; Set One, DDA 1200 ppm, 2nd inoculation 48 h",5 (>45 viable microorganisms Severely contaminated)
same,streak plate rating,"[2]; Set One, DDA 1200 ppm, 3rd inoculation 24 h",5 (>45 viable microorganisms Severely contaminated)
same,streak plate rating,"[2]; Set One, DDA 1200 ppm, 3rd inoculation 48 h",5 (>45 viable microorganisms Severely contaminated)
same,streak plate rating,"[2]; Set One, DDA 1200 ppm, 3rd inoculation 72 h",5 (>45 viable microorganisms Severely contaminated)
same,streak plate rating,"[2]; Set One, DDA 1800 ppm, 1st inoculation 24 h",2 (6-15 viable microorganisms Lightly contaminated)
same,streak plate rating,"[2]; Set One, DDA 1800 ppm, 1st inoculation 48 h",3 (16-30 viable microorganisms Moderately contaminated)
same,streak plate rating,"[2]; Set One, DDA 1800 ppm, 1st inoculation 72 h",1 (1-5 viable microorganisms Very lightly contaminated)
same,streak plate rating,"[2]; Set One, DDA 1800 ppm, 2nd inoculation 24 h",5 (>45 viable microorganisms Severely contaminated)
same,streak plate rating,"[2]; Set One, DDA 1800 ppm, 2nd inoculation 48 h",5 (>45 viable microorganisms Severely contaminated)
same,streak plate rating,"[2]; Set One, DDA 1800 ppm, 3rd inoculation 24 h",5 (>45 viable microorganisms Severely contaminated)
same,streak plate rating,"[2]; Set One, DDA 1800 ppm, 3rd inoculation 48 h",5 (>45 viable microorganisms Severely contaminated)
same,streak plate rating,"[2]; Set One, DDA 1800 ppm, 3rd inoculation 72 h",5 (>45 viable microorganisms Severely contaminated)
same,streak plate rating,"[2]; Set Two, DDA alone, ppm not given, 1st inoculation 24 h",5 (>45 viable microorganisms Severely contaminated)
same,streak plate rating,"[2]; Set Two, DDA alone, ppm not given, 1st inoculation 48 h",5 (>45 viable microorganisms Severely contaminated)
same,streak plate rating,"[2]; Set Two, DDA alone, ppm not given, 1st inoculation 72 h",5 (>45 viable microorganisms Severely contaminated)
same,streak plate rating,"[2]; Set Two, DDA alone, ppm not given, 2nd inoculation 24 h",5 (>45 viable microorganisms Severely contaminated)
same,streak plate rating,"[2]; Set Two, DDA alone, ppm not given, 2nd inoculation 48 h",5 (>45 viable microorganisms Severely contaminated)
same,streak plate rating,"[2]; Set Two, DDA alone, ppm not given, 2nd inoculation 72 h",5 (>45 viable microorganisms Severely contaminated)
same,streak plate rating,"[2]; Set Two, DDA alone, ppm not given, 3rd inoculation 24 h",5 (>45 viable microorganisms Severely contaminated)
same,streak plate rating,"[2]; Set Two, DDA alone, ppm not given, 3rd inoculation 48 h",5 (>45 viable microorganisms Severely contaminated)
same,streak plate rating,"[2]; Set Two, DDA alone, ppm not given, 3rd inoculation 72 h",5 (>45 viable microorganisms Severely contaminated)
"CCCCCCCCCCCCN1CCOCC1 [DDM, 4-Dodecylmorpholine]",streak plate rating,"[2]; Set Three, DDM 1200 ppm, 1st inoculation 24 h",5 (>45 viable microorganisms Severely contaminated)
same,streak plate rating,"[2]; Set Three, DDM 1200 ppm, 1st inoculation 48 h",5 (>45 viable microorganisms Severely contaminated)
same,streak plate rating,"[2]; Set Three, DDM 1200 ppm, 1st inoculation 72 h",5 (>45 viable microorganisms Severely contaminated)
same,streak plate rating,"[2]; Set Three, DDM 1200 ppm, 2nd inoculation 24 h",5 (>45 viable microorganisms Severely contaminated)
same,streak plate rating,"[2]; Set Three, DDM 1200 ppm, 2nd inoculation 48 h",5 (>45 viable microorganisms Severely contaminated)
same,streak plate rating,"[2]; Set Three, DDM 1200 ppm, 2nd inoculation 72 h",5 (>45 viable microorganisms Severely contaminated)
same,streak plate rating,"[2]; Set Three, DDM 1200 ppm, 3rd inoculation 24 h",5 (>45 viable microorganisms Severely contaminated)
same,streak plate rating,"[2]; Set Three, DDM 1200 ppm, 3rd inoculation 48 h",5 (>45 viable microorganisms Severely contaminated)
same,streak plate rating,"[2]; Set Three, DDM 1200 ppm, 3rd inoculation 72 h",5 (>45 viable microorganisms Severely contaminated)
"CCCCCCCC[N+](C)(C)[O-] [DMOA Oxide, N,N-dimethyloctylamine-n-oxide]",MIC,"Aureobasidium pullulans; Aureobasidium pullulans, read-out: Minimum Inhibitory Concentration",500 µg/mL
same,MIC,"Staphylococcus aureus; Staphylococcus aureus, read-out: Minimum Inhibitory Concentration",250 µg/mL
same,MIC,"Candida albicans; Candida albicans, read-out: Minimum Inhibitory Concentration",375 µg/mL
same,MIC,"Escherichia coli; Escherichia coli, read-out: Minimum Inhibitory Concentration",750 µg/mL
same,MIC,"Aspergillus brasiliensis; Aspergillus brasiliensis, read-out: Minimum Inhibitory Concentration",500 µg/mL
same,Minimum Inhibitory Concentration,Aspergillus brasiliensis,500 ppm
"CCCCCCCCCCCCCCCCCCN(C)C [DMODA, N,N-Dimethyloctadecylamine]",biocide enhancing effect on zinc pyrithione,[1],enhance the effectiveness of the zinc pyrithione
same,MIC,[1],> 640 µg/mL
